The values below come from patent publication US11207296B2, “XPA inhibitor compounds and their use” (INDIANA UNIVERSITY RESEARCH AND TECHNOLOGY CORPORATION, priority 2017, dated 2021).

In general, IC50 refers to the point on the concentration scale where inhibition reaches its midpoint.
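Further: XPA expressed in Sf9 cells, preincubated with compound on ice before adding DNA, complex resolved on native polyacrylamide gel at 4 °C, PhosphorImager band intensity, binding inhibition versus DMSO.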

In this experiment the target is full length XPA protein (Homo sapiens, UniProt P23025). The experiment can be described thus: biochemical. As to conditions: IC50 (μM), EMSA, 32P labeled 30 bp duplex DNA containing a single 1,2 dGpG cisplatin adduct, several values in a cell = separate determinations. A general note: A gel shift assay detects complexes by their altered migration in electrophoresis.
Sequence of full length XPA protein (P23025 whole entry): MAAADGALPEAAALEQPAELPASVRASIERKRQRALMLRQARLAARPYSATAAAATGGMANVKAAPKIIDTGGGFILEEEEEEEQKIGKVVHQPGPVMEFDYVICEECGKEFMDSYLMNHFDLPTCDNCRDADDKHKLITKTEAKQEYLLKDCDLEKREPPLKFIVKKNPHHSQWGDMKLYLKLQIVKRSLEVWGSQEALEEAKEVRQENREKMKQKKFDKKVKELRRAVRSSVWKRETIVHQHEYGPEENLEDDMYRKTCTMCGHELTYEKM
Description: Purified XPA (lanes 2-18) was mixed with DMSO (Lane 2, C) control or the indicated compound at a concentration of 50 μM (Lanes 3-18). ^32P labeled ds-platinum damaged DNA was added and incubation continued for 30 minutes on ice. The products were separated on a 6% native gel by electrophoresis at 4° C. Products were detected and quantified by PhosphorImager analysis.
EMSA was carried out using previously described procedure with the following modification. Reactions were performed in volume of 20 μL, containing a ^32P labeled 30 bp duplex DNA containing a single 1,2 dGpG cisplatin adduct. Compounds were pre-incubated on ice with the indicated amount of XPA and products separated by electrophoresis on a non-denaturing 6% polyacrylamide gel. Gels were cooled, loaded and electrophoresis performed at 4° C. Gels were used to expose a Phosphorlmager screen and band intensity determined and % binding and inhibition calculated as we have previously described.
As for `O=C(O)c1cccc(N2N=C(C(F)(F)F)/C(=C/c3ccc(-c4ccc(Cl)c(C(=O)NCC5CC5)c4)o3)C2=O)c1` [NG-04-304, 3-(4-((5-(4-chloro-3-((cyclopropylmethyl)carbamoyl)phenyl)furan-2-yl)methylene)-5-oxo-3-(trifluoromethyl)-4,5-dihydro-1H-pyrazol-1-yl)benzoic acid], the IC50 is greater than 50 µM.
Compound `O=C(O)c1cccc(N2N=C(C(F)(F)F)C(Cc3ccc(-c4ccc(Cl)c(C(=O)NCC5CC5)c4)o3)C2=O)c1` (centres unmarked) [NG-04-309, 3-(4-((5-(4-chloro-3-((cyclopropylmethyl)carbamoyl)phenyl)furan-2-yl)methyl)-5-oxo-3-(trifluoromethyl)-4,5-dihydro-1H-pyrazol-1-yl)benzoic acid] displayed a 50% inhibitory concentration (IC50) of 40 µM.
With `COc1cccc(NC(=O)c2cc(-c3ccc(/C=C4\C(=O)N(c5cccc(C(=O)O)c5)N=C4C(F)(F)F)o3)ccc2Cl)c1` [NG-04-312, 3-(4-((5-(4-chloro-3-((3-methoxyphenyl)carbamoyl)phenyl)furan-2-yl)methylene)-5-oxo-3-(trifluoromethyl)-4,5-dihydro-1H-pyrazol-1-yl)benzoic acid], the IC50 was greater than 50 µM.
With `O=C(O)c1cccc(N2N=C(C(F)(F)F)/C(=C/c3ccc(-c4ccc(Cl)c(C(=O)O)c4)o3)C2=O)c1` [NG-04-314, 5-(5-((1-(3-carboxyphenyl)-5-oxo-3-(trifluoromethyl)-1,5-dihydro-4H-pyrazol-4-ylidene)methyl)furan-2-yl)-2-chlorobenzoic acid] the figure was 15 µM.
Then `COc1cccc(NC(=O)c2cc(-c3ccc(CC4C(=O)N(c5cccc(C(=O)O)c5)N=C4C(F)(F)F)o3)ccc2Cl)c1` (centres unmarked) [NG-04-322, 3-(4-((5-(4-chloro-3-((3-methoxyphenyl)carbamoyl)phenyl)furan-2-yl)methyl)-5-oxo-3-(trifluoromethyl)-4,5-dihydro-1H-pyrazol-1-yl)benzoic acid], with 30 µM.
